Source: the NIST ThermoML archive (doi:10.1016/j.jct.2008.06.017)

Tests used:
[1] = Liquid, Vibrating tube method
[2] = xn = mol fraction of the nth substance listed; details: Liquid, Vibrating tube method

COC(=O)OC [dimethyl carbonate]
[1]
Details	mass density [kg/m3]
293.15 K	1069.79
303.15 K	1056.75
313.15 K	1043.37

C=CCOC(=O)C(=C)C [2-propenyl 2-methylpropenoate] + COC(=O)OC
[2]
Details	mass density [kg/m3]
293.15 K, x2 = 0	932.965
293.15 K, x2 = 0.0254	935.07
293.15 K, x2 = 0.0498	937.164
293.15 K, x2 = 0.1006	941.619
293.15 K, x2 = 0.1507	946.22
293.15 K, x2 = 0.2	950.913
293.15 K, x2 = 0.2505	955.966
293.15 K, x2 = 0.2999	961.134
293.15 K, x2 = 0.3499	966.623
293.15 K, x2 = 0.4005	972.4
293.15 K, x2 = 0.449	978.208
293.15 K, x2 = 0.5	984.616
293.15 K, x2 = 0.5499	991.215
293.15 K, x2 = 0.5991	998.042
293.15 K, x2 = 0.6502	1005.49
293.15 K, x2 = 0.7	1013.17
293.15 K, x2 = 0.7502	1021.34
293.15 K, x2 = 0.8001	1029.9
293.15 K, x2 = 0.8499	1039
293.15 K, x2 = 0.9002	1048.71
293.15 K, x2 = 0.9499	1058.87
293.15 K, x2 = 0.975	1064.27
303.15 K, x2 = 0	922.525
303.15 K, x2 = 0.0253	924.591
303.15 K, x2 = 0.0501	926.656
303.15 K, x2 = 0.101	931.041
303.15 K, x2 = 0.15	935.458
303.15 K, x2 = 0.1999	940.145
303.15 K, x2 = 0.2505	945.101
303.15 K, x2 = 0.2999	950.165
303.15 K, x2 = 0.3499	955.527
303.15 K, x2 = 0.4003	961.195
303.15 K, x2 = 0.447	966.662
303.15 K, x2 = 0.5001	973.205
303.15 K, x2 = 0.5501	979.68
303.15 K, x2 = 0.5994	986.387
303.15 K, x2 = 0.6502	993.661
303.15 K, x2 = 0.7001	1001.19
303.15 K, x2 = 0.7503	1009.19
303.15 K, x2 = 0.8001	1017.58
303.15 K, x2 = 0.8499	1026.47
303.15 K, x2 = 0.9002	1035.99
303.15 K, x2 = 0.9499	1046
303.15 K, x2 = 0.975	1051.3
313.15 K, x2 = 0	912.072
313.15 K, x2 = 0.0247	914.028
313.15 K, x2 = 0.0499	916.075
313.15 K, x2 = 0.1002	920.29
313.15 K, x2 = 0.1496	924.626
313.15 K, x2 = 0.1997	929.2
313.15 K, x2 = 0.2495	933.94
313.15 K, x2 = 0.2999	938.979
313.15 K, x2 = 0.3502	944.239
313.15 K, x2 = 0.3999	949.688
313.15 K, x2 = 0.4499	955.431
313.15 K, x2 = 0.4997	961.436
313.15 K, x2 = 0.5503	967.862
313.15 K, x2 = 0.6001	974.504
313.15 K, x2 = 0.6497	981.462
313.15 K, x2 = 0.7001	988.916
313.15 K, x2 = 0.7498	996.664
313.15 K, x2 = 0.7998	1004.93
313.15 K, x2 = 0.85	1013.71
313.15 K, x2 = 0.8998	1023
313.15 K, x2 = 0.9498	1032.83
313.15 K, x2 = 0.9746	1037.94

C=Cc1ccccc1 [styrene]
[1]
Details	mass density [kg/m3]
293.15 K	906.26
303.15 K	897.392
313.15 K	888.472

COC(=O)OC [dimethyl carbonate] + C=Cc1ccccc1
[2], x1 = 1
Details	mass density [kg/m3]
293.15 K	1069.79
303.15 K	1056.75
313.15 K	1043.37

COC(=O)OC [dimethyl carbonate] + C=C(C)C(=O)OCCCC
[2], x1 = 1
Details	mass density [kg/m3]
293.15 K	1069.79
303.15 K	1056.75
313.15 K	1043.37

COC(=O)OC [dimethyl carbonate] + C=COC(C)=O
[2], x1 = 1
Details	mass density [kg/m3]
293.15 K	1069.79
303.15 K	1056.75
313.15 K	1043.37

C=Cc1ccccc1 [styrene] + COC(=O)OC
[2]
Details	mass density [kg/m3]
293.15 K, x2 = 0	906.26
293.15 K, x2 = 0.0246	909.146
293.15 K, x2 = 0.0498	912.112
293.15 K, x2 = 0.1006	918.267
293.15 K, x2 = 0.1506	924.493
293.15 K, x2 = 0.2004	930.891
293.15 K, x2 = 0.2506	937.533
293.15 K, x2 = 0.3008	944.38
293.15 K, x2 = 0.3498	951.272
293.15 K, x2 = 0.4007	958.655
293.15 K, x2 = 0.4498	966.048
293.15 K, x2 = 0.5001	973.84
293.15 K, x2 = 0.5499	981.838
293.15 K, x2 = 0.5996	990.075
293.15 K, x2 = 0.6507	998.871
293.15 K, x2 = 0.7001	1007.72
293.15 K, x2 = 0.7496	1016.93
293.15 K, x2 = 0.7997	1026.61
293.15 K, x2 = 0.8501	1036.78
293.15 K, x2 = 0.9001	1047.29
293.15 K, x2 = 0.9499	1058.27
293.15 K, x2 = 0.9747	1063.93
303.15 K, x2 = 0	897.392
303.15 K, x2 = 0.0262	900.37
303.15 K, x2 = 0.0502	903.146
303.15 K, x2 = 0.1004	909.105
303.15 K, x2 = 0.1506	915.204
303.15 K, x2 = 0.2005	921.462
303.15 K, x2 = 0.2502	927.883
303.15 K, x2 = 0.3001	934.514
303.15 K, x2 = 0.3502	941.367
303.15 K, x2 = 0.4	948.407
303.15 K, x2 = 0.45	955.705
303.15 K, x2 = 0.5003	963.262
303.15 K, x2 = 0.5498	971.001
303.15 K, x2 = 0.5998	979.074
303.15 K, x2 = 0.6497	987.452
303.15 K, x2 = 0.7007	996.305
303.15 K, x2 = 0.7502	1005.27
303.15 K, x2 = 0.8002	1014.68
303.15 K, x2 = 0.85	1024.5
303.15 K, x2 = 0.8999	1034.72
303.15 K, x2 = 0.9502	1045.5
303.15 K, x2 = 0.975	1051.05
313.15 K, x2 = 0	888.472
313.15 K, x2 = 0.0256	891.333
313.15 K, x2 = 0.0501	894.082
313.15 K, x2 = 0.0998	899.822
313.15 K, x2 = 0.1514	905.948
313.15 K, x2 = 0.2007	911.977
313.15 K, x2 = 0.2506	918.225
313.15 K, x2 = 0.3008	924.745
313.15 K, x2 = 0.3499	931.26
313.15 K, x2 = 0.4006	938.218
313.15 K, x2 = 0.4501	945.282
313.15 K, x2 = 0.5103	954.115
313.15 K, x2 = 0.5503	960.19
313.15 K, x2 = 0.5995	967.947
313.15 K, x2 = 0.6499	976.16
313.15 K, x2 = 0.6999	984.624
313.15 K, x2 = 0.7503	993.432
313.15 K, x2 = 0.8002	1002.61
313.15 K, x2 = 0.8499	1012.09
313.15 K, x2 = 0.9001	1022.04
313.15 K, x2 = 0.9497	1032.41
313.15 K, x2 = 0.975	1037.84
